Experimental data taken from ChEMBL document CHEMBL4414544, “Dihydropyrimidine-2-thiones as Eg5 inhibitors and L-type calcium channel blockers: potential antitumour dual agents” (Medchemcomm, 2019).
Activity calls are given as the source filed them. No cut-off for these calls is given here.

Columns and labels:
Aorta [1] = assay: Vasodilating activity in Wistar rat aortic rings assessed as reduction in phenylephrine-induced contractions; type: functional, tissue-based
Aorta [2] = assay: Vasodilating activity in Wistar rat aortic rings assessed as reduction in phenylephrine-induced contractions relative to control; type: functional
Aorta [3] = assay: Vasodilating activity in Wistar rat aortic rings assessed as reduction in KCl-induced contractions; type: functional, tissue-based
Aorta [4] = assay: Vasodilating activity in Wistar rat aortic rings assessed as reduction in KCl-induced contractions relative to control; type: functional
MM1.S = assay: Antiproliferative activity against human MM1S cells incubated for 72 hrs by MTT assay; type: functional, cell-based
A549 = assay: Antiproliferative activity against human A549 cells incubated for 72 hrs by MTT assay; type: functional, cell-based; details: A549, 72 h
HCT-116 = assay: Antiproliferative activity against human HCT116 cells incubated for 72 hrs by MTT assay; type: functional, cell-based; details: HCT-116, 72 h
MCF7 = assay: Antiproliferative activity against human MCF7 cells incubated for 72 hrs by MTT assay; type: functional, cell-based; details: MCF7, 72 h
[5] = molecular target: T1, Kinesin-like protein KIF11 (Homo sapiens) (UniProt P52732); assay: Inhibition of Eg5 in human MCF7 cells assessed as increase in monopolar spindle formation at 100 uM incubated for 24 hrs by DAPI staining based confocal microscopic method; type: cell-based
T1 sequence (whole entry): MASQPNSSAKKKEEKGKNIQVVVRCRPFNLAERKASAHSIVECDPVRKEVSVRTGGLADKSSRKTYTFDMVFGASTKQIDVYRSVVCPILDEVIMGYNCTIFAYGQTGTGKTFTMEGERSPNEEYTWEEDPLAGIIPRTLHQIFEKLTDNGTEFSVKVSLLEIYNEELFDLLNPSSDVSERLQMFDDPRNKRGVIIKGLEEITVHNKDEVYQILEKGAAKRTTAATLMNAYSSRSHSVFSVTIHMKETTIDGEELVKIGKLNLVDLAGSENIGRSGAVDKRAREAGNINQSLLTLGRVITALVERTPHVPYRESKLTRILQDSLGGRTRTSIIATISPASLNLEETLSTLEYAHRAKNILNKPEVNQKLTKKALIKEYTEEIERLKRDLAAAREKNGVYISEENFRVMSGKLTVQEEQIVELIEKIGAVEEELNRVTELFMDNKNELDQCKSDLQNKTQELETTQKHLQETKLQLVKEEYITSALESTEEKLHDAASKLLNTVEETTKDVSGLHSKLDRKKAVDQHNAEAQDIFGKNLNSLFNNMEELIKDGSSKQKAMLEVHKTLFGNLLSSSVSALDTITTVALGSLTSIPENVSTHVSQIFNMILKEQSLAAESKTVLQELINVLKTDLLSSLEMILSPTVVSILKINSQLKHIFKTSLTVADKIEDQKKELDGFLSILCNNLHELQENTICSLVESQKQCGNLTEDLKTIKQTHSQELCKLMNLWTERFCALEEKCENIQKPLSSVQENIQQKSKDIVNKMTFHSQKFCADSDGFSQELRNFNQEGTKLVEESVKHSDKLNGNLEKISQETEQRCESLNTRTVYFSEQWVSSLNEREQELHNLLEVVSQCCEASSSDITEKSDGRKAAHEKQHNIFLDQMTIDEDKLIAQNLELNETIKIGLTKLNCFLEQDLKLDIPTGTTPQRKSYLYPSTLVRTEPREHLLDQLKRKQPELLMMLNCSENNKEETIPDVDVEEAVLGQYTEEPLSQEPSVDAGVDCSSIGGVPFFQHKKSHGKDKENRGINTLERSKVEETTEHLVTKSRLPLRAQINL

Aorta [6] = assay: Vasodilating activity in Wistar rat aortic rings assessed as reduction in phenylephrine-induced contractions in presence of Cacl2 in calcium free Krebs medium incubated for 1 hr relative to control; type: functional; design: scale not given: the % may be the effect or the level left
[7] = Cytotoxicity against human MSC assessed as reduction in cell viability incubated for 72 hrs by MTT assay; type: ADME
[8] = molecular target: T2, Voltage-gated L-type calcium channel (Rattus norvegicus, UniProt P22002+Q02485+P27732); assay: Inhibition of L-type calcium channel in Wistar rat aortic rings assessed as reduction in (-)-Bay K8644-induced contractions at 10^-4 M measured after 20 mins; details: 100 µM
[9] = molecular target: T2, Voltage-gated L-type calcium channel; assay: Inhibition of L-type calcium channel in Wistar rat aortic rings assessed as reduction in (-)-Bay K8644-induced contractions at 10^-5 M measured after 20 mins; details: 10 µM

| SMILES | IC50 (Aorta [1]) [µM] | Emax (Aorta [2]) [%] | IC50 (Aorta [3]) [µM] | Emax (Aorta [4]) [%] | IC50 (MM1.S) [µM] | IC50 (A549) [µM] | IC50 (HCT-116) [µM] | IC50 (MCF7) [µM] | inhibition [5] | Activity (Aorta [6]) [%] | IC50 [7] [µM] | inhibition (INH) [8] | inhibition (INH) [9] |
| --- | --- | --- | --- | --- | --- | --- | --- | --- | --- | --- | --- | --- | --- |
| CCOC(=O)C1=C(C)NC(=S)NC1c1ccc(O)c(OC)c1 (racemic) | 29 | 78 | 91 | 78.3 | > 100 | > 100 | > 100 | > 100 | Active |  |  |  |  |
| CCOC(=O)C1=C(C)NC(=S)NC1c1cccnc1 (racemic) | 46 | 80.9 | 52 | 78.4 | > 100 | > 100 | > 100 | > 100 |  |  |  |  |  |
| CCOC(=O)C1=C(C)NC(=S)NC1c1ccc(O)c([N+](=O)[O-])c1 (racemic) | 26 | 62.4 | 38 | 57.1 | > 100 | > 100 | > 100 | > 100 |  |  |  |  |  |
| CCOC(=O)C1=C(C)NC(=S)NC1c1ccc2c(c1)OCCO2 (racemic) | 5.6 | 83.3 | 12 | 71.7 | > 100 | > 100 | > 100 | > 100 | Active | 41.8 | > 100 | Active |  |
| CCOC(=O)C1=C(C)NC(=S)NC1c1ccc2cn[nH]c2c1 (racemic) | 42 | 61.2 | 36 | 48.5 | 63.1 | > 100 | > 100 | > 100 |  |  | > 100 |  |  |
| CCOC(=O)C1=C(C)NC(=S)NC1c1ccc(OC)c(O)c1 (racemic) | 25 | 88.4 | 37 | 77 | > 100 | > 100 | > 100 | > 100 |  |  |  |  |  |
| CCOC(=O)C1=C(C)N=C(S)NC1c1cccc([N+](=O)[O-])c1 (racemic) | 3.2 | 84.9 | 16 | 95.4 | 96.5 | 44.9 | 58 | 32.2 | Active | 18.1 | > 100 | Active | Active |
| CCOC(=O)C1=C(C)NC(=S)NC1c1cccc(O)c1 (racemic) [MONASTROL] | 6.9 | 95.2 | 1.2 | 89.5 | 8.7 | > 100 | 9 | 73 |  | 81.8 |  | Active |  |
| COC(=O)C1=C(C)NC(C)=C(C(=O)OC)C1c1ccccc1[N+](=O)[O-] [NIFEDIPINE] | 0.019 | 75.1 | 0.0029 | 98.7 | 57.9 | > 100 | > 100 | > 100 |  |  | > 100 |  |  |
